Test results from patent US20130165641A1, “6,11-BRIDGED BIARYL MACROLIDES” (Enanta Pharmaceuticals, Inc., priority 2007, published 2013).
≈ marks a conversion by molar mass, not a printed value.

Tested on: MRSA
Assay: MIC by micro-dilution method, MRSA isolates
Assay type: cell-based, Staphylococcus aureus
Details: compounds of Formula XVI; for MIC MRSA 7662: MRSA isolate 7662; for MIC MRSA 33591: MRSA isolate 33591
Description: Susceptibility tests can be used to quantitatively measure the in vitro activity of an antimicrobial agent against a given bacterial isolate. Compounds are tested for in vitro antibacterial activity by a micro-dilution method. Minimal Inhibitory Concentration (MIC) is determined in 96 well microtiter plates utilizing the appropriate broth medium for the observed bacterial isolates. […] The diluted compounds (2 μl/well) are then transferred into sterile, uninoculated medium (0.2 mL) by use of a 96 fixed tip-pipetting station. The inoculum for each bacterial strain is standardized to approximately 5×10^5 CFU/mL by optical comparison to a 0.5 McFarland turbidity standard. The plates are inoculated with 10 μl/well of adjusted bacterial inoculum. The 96 well plates are covered and incubated at 35+/−2° C. for 24 hours in ambient air environment. Following incubation, plate wells are visually examined by Optical Density measurement for the presence of growth (turbidity). The lowest concentration of an antimicrobial agent at which no visible growth occurs is defined as the MIC.
All in vitro testing follows the guidelines described in the Approved Standards M7-A7 protocol, published by the Clinical Laboratory Standards Institute (CLSI).

Row | SMILES | MIC MRSA 7662 | MIC MRSA 33591
1 | CC[C@H]1OC(=O)[C@@](C)(F)C(=O)[C@H](C)[C@@H](O[C@@H]2O[C@H](C)C[C@H](N(C)C)[C@H]2O)[C@@]2(C)C[C@@H](C)C(=NC(=O)C(C)C)[C@H](C)[C@@H](OC/C(=N\OCc3ccc(-c4nc(N)cs4)cn3)CO2)[C@]1(C)O [Example 109] | 2 µg/mL (≈ 2.18 µM) | 2 µg/mL (≈ 2.18 µM)
2 | CC[C@H]1OC(=O)[C@@](C)(F)C(=O)[C@H](C)[C@@H](O[C@@H]2O[C@H](C)C[C@H](N(C)C)[C@H]2O)[C@@]2(C)C[C@@H](C)C(=NC(C)=O)[C@H](C)[C@@H](OC/C(=N\OCc3csc(-c4cccc(N)n4)n3)CO2)[C@]1(C)O [Example 136] | 2.00 µg/mL (≈ 2.24 µM) | 2.00 µg/mL (≈ 2.24 µM)
3 | CCC(=O)N=C1[C@H](C)C[C@@]2(C)OC/C(=N/OCc3ccc(-c4nc(N)cs4)cc3)CO[C@H]([C@H]1C)[C@](C)(O)[C@@H](CC)OC(=O)[C@@](C)(F)C(=O)[C@H](C)[C@H]2O[C@@H]1O[C@H](C)C[C@H](N(C)C)[C@H]1O [Example 120] | 4 µg/mL (≈ 4.42 µM) | 4 µg/mL (≈ 4.42 µM)
4 | CCC(=O)N=C1[C@H](C)C[C@@]2(C)OC/C(=N/OCc3ncc(-c4nc(N)cs4)cn3)CO[C@H]([C@H]1C)[C@](C)(O)[C@@H](CC)OC(=O)[C@@](C)(F)C(=O)[C@H](C)[C@H]2O[C@@H]1O[C@H](C)C[C@H](N(C)C)[C@H]1O [Example 132] | 2.00 µg/mL (≈ 2.21 µM) | 4.00 µg/mL (≈ 4.41 µM)
5 | CC[C@H]1OC(=O)[C@@](C)(F)C(=O)[C@H](C)[C@@H](O[C@@H]2O[C@H](C)C[C@H](N(C)C)[C@H]2O)[C@@]2(C)C[C@@H](C)C(=NC(=O)C(C)C)[C@H](C)[C@@H](OC/C(=N\OCc3coc(-c4cccc(N)n4)n3)CO2)[C@]1(C)O [Example 118] | 4 µg/mL (≈ 4.43 µM) | 8 µg/mL (≈ 8.86 µM)
6 | CCCC(=O)N=C1C(C)CC2(C)OCC(=NOCc3ccc(-c4cccc(N)n4)cn3)COC(C1C)C(C)(O)C(CC)OC(=O)C(C)(F)C(=O)C(C)C2OC1OC(C)CC(N(C)C)C1O (stereo not drawn) [Example 76] | 4 µg/mL (≈ 4.38 µM) | 4 µg/mL (≈ 4.38 µM)
7 | CC[C@H]1OC(=O)[C@@](C)(F)C(=O)[C@H](C)[C@@H](O[C@@H]2O[C@H](C)C[C@H](N(C)C)[C@H]2O)[C@@]2(C)C[C@@H](C)C(=NC(C)=O)[C@H](C)[C@@H](OC/C(=N\OCc3ccc(-c4nccc(N)n4)cc3)CO2)[C@]1(C)O [Example 105] | 8 µg/mL (≈ 9.04 µM) | 8 µg/mL (≈ 9.04 µM)
8 | CCC1OC(=O)C(C)(F)C(=O)C(C)C(OC2OC(C)CC(N(C)C)C2O)C2(C)CC(C)C(=NC(C)=O)C(C)C(OCC(=NOCc3ccc(-n4ccc(N)n4)cn3)CO2)C1(C)O (stereo not drawn) [Example 82] | 4 µg/mL (≈ 4.58 µM) | 8 µg/mL (≈ 9.15 µM)
9 | CC[C@H]1OC(=O)[C@@](C)(F)C(=O)[C@H](C)[C@@H](O[C@@H]2O[C@H](C)C[C@H](N(C)C)[C@H]2O)[C@@]2(C)C[C@@H](C)C(=NC(=O)C(C)C)[C@H](C)[C@@H](OC/C(=N\OCc3ccc(-c4nccc(N)n4)cn3)CO2)[C@]1(C)O [Example 114] | 4 µg/mL (≈ 4.38 µM) | 8 µg/mL (≈ 8.75 µM)
10 | CCC(=O)N=C1[C@H](C)C[C@@]2(C)OC/C(=N/OCc3ccc(-c4nsc(N)n4)cc3)CO[C@H]([C@H]1C)[C@](C)(O)[C@@H](CC)OC(=O)[C@@](C)(F)C(=O)[C@H](C)[C@H]2O[C@@H]1O[C@H](C)C[C@H](N(C)C)[C@H]1O [Example 127] | 2.00 µg/mL (≈ 2.21 µM) | 4.00 µg/mL (≈ 4.42 µM)
11 | CCC(=O)N=C1C(C)CC2(C)OCC(=NOCc3ccc(-c4cccc(N)n4)cn3)COC(C1C)C(C)(O)C(CC)OC(=O)C(C)(F)C(=O)C(C)C2OC1OC(C)CC(N(C)C)C1O (stereo not drawn) [Example 75] | 4 µg/mL (≈ 4.45 µM) | 4 µg/mL (≈ 4.45 µM)
12 | CCC(=O)N=C1C(C)CC2(C)OCC(=NOCc3ccc(-n4ccc(N)n4)cc3)COC(C1C)C(C)(O)C(CC)OC(=O)C(C)C(=O)C(C)C2OC1OC(C)CC(N(C)C)C1O (stereo not drawn) [Example 83] | 2 µg/mL (≈ 2.3 µM) | 4 µg/mL (≈ 4.6 µM)
